In patent US7763645B2, “Carvedilol dihydrogen phosphate monohydrate” (Wanbury Limited, priority 2008, dated 2010):

Columns and labels:
[1] = Dissolution study of capsule formulation (USP Type 1); type: physicochemical; conditions: 0.1 N hydrochloric acid; for % Dissolved: 100 rpm
Experimental: The dissolution rate of carvedilol dihydrogen phosphate monohydrate as a capsule formulation was compared with that of carvedilol phosphate hemihydrate similarly prepared.
The samples for the dissolution study were prepared as follows:
Carvedilol phosphate, 25.0 mg, was accurately weighed along with lactose and other fillers. The mix was filled inside a colorless gelatin capsule shell, size #2. Six such capsules were subjected to dissolution studies, each for the monohydrate and hemi-hydrate material.
The intrinsic solubility of the monohydrate form versus the hemihydrate form of carvedilol is done using the general guidelines for characterizing the dissolution rate as per the United States Pharmacopoeia.
The dissolution conditions were:
Medium: 0.1 N hydrochloric acid, 900 ml
Speed of rotations: 100 per minute.
Temp: 37 degree±0.05 degrees.
The percent dissolved: was determined by UV spectrophotometry at a wavelength of 280 nm.

[2] = Hydrate stability: drying at 110° C. and re-exposure to 75% relative humidity at 37° C.; type: physicochemical
Experimental: The carvedilol dihydrogen phosphate monohydrate prepared by the present processes is dried till constant weight for 4-10 hours at 40-45° C. under vacuum to obtain carvedilol dihydrogen phosphate monohydrate having bound water content in the range of 3.0-4.0% wt/wt; the theoretical moisture content for carvedilol dihydrogen phosphate monohydrate is 3.54% wt/wt. Further, the bound water content was removed by drying the material at 110° C. till the moisture content below 0.5%. The original moisture content was regained after about 10-15 hours when exposed to 75% relative humidity at 37° C. (in air).

[3] = 10 min, 25.0 mg capsule, 900 ml, 37 degree
[4] = 20 min, 25.0 mg capsule, 900 ml, 37 degree
[5] = 30 min, 25.0 mg capsule, 900 ml, 37 degree
[6] = 45 min, 25.0 mg capsule, 900 ml, 37 degree
[7] = 60 min, 25.0 mg capsule, 900 ml, 37 degree

Time to complete dissolution ([1]; 25.0 mg capsule, 900 ml, 37 degree) [min] | % Dissolved ([1]; 90 min, 25.0 mg capsule, 900 ml, 37 degree) [%] | Time to regain original moisture content ([2]; after drying at 110° C. to moisture below 0.5%, exposed to 75% relative humidity at 37° C. (in air)) [h] | Compound | % Dissolved [1, 3] [%] | % Dissolved [1, 4] [%] | % Dissolved [1, 5] [%] | % Dissolved [1, 6] [%] | % Dissolved [1, 7] [%] | Rate of dissolution compared with hemihydrate form ([1]; capsule) | Stability of hydrate form ([2]; drying at 110° C., then 75% relative humidity at 37° C. (in air)) | % Dissolved ([1]; 90 min, 25.0 mg capsule, 900 ml, 37 degree, Phosphate Hemihydrate) [%] | % Dissolved ([1]; 90 min, 25.0 mg capsule, 900 ml, 37 degree, listed as hemihydrate form, Phosphate Hemihydrate)
≤ 90 | 101.55 | 10 to 15 | COc1ccccc1OCCNCC(O)COc1cccc2[nH]c3ccccc3c12.O=P(O)(O)O (centres unmarked) [Monohydrate form, 1-(9H-carbazol-4-yloxy)-3-[[2-(2-methoxyphenoxy)ethyl]amino]-propan-2-ol] | 46.20 | 68.28 | 82.45 | 95.89 | 96.81 | faster rate of dissolution than the hemihydrate form | stable and does not convert into the dihydrate or hemihydrate form |  | 
 |  |  | Carvedilol Dihydrogen Phosphate Hemihydrate [Hemihydrate form, reference compound] | 45.95 | 63.75 | 68.43 | 75.99 | 82.68 |  |  | 88.95 | less than 90%
